Laboratory results: patent publication US11447485B2, “Class of bifunctional compounds with quanternary ammonium salt structure” (Beijing Showby Pharmaceutical Co., Ltd., priority 2016, dated 2022)
Where two headings read alike, the source gives them in different places.

Key:
[1] = tested on: heart rate of Beagle dogs; experiment: Heart rate changes after iv administration in Beagle dogs; type: in vivo, Beagle dog
Description: Beagle dogs were randomly divided into two groups, half male and half female, and were intravenously injected (iv) with 7.5% ethanol solution of compounds of the invention and control compound. Each compound was set up in two dosage groups of 0.01 mg/kg and 0.10 mg/kg.

[2] = Liver microsome metabolic stability in vitro (human); settings: Human liver microsomes
Description: (§1) The area ratio of the 0 min sample was taken as 100%, and the remaining percentage of the compound after incubation at different times was obtained at each time point by comparison with the sample. With the natural logarithm of this percentage on the ordinate and time on the abscissa, a scatter plot was drawn to simulate a straight line with a negative slope of k. The parameters were calculated according to the formula.
(§2) Liver weight indicates the liver weight (g) per kilogram of body weight, and P450 indicates the amount (mg) of P450 enzyme per gram of liver.

[3] = Liver microsome metabolic stability in vitro (SD rat); settings: SD rat liver microsomes
Description: as §1, §2

[4] = Liver microsome metabolic stability in vitro (Beagle dog); settings: Beagle dog liver microsomes
Description: as §1, §2

[5] = tested on: guinea pig tracheal smooth muscle (MABA); experiment: MABA activity: relaxation of CCh pre-constricted guinea pig isolated trachea; settings: Cavia porcellus; CCh 3×10^−6 mol/L
Description: (1) The Constriction Effect of Tracheal Smooth Muscle of Guinea Pig Induced by the Example Compounds Antagonizing Carbachol (CCh)
(§3) Preparation of an isolated tracheal smooth muscle specimen of a guinea pig: same as Experiment Example 1.
Administration Method: After the trachea flake were stabilized, carbachol with a final concentration of 3×10^−6 mol/L was added, and administration was started when the pressure value of the trachea flake was increased to a stable platform. The experiments were divided into blank group and each test sample administration group. DMSO solution prepared from K—H solution and 50 μl of each test sample solution were added to each group respectively. The test sample administration group was added with 10^−9, 0.3×10^−8, 10^−8, 0.3×10^−7, 10^−7, 0.3×10^−6 and 10^−6 mol/L of test compound and control substance at cumulative concentration. The blank group was added with corresponding diluted DMSO solution. Medlab was used to record the relaxation degree of smooth muscle of the trachea flake. Finally, isoproterenol with a final concentration of 10^−5 mol/L was added as 100% relaxation.

[6] = tested on: M receptor of guinea pig tracheal smooth muscle; experiment: MA activity: guinea pig isolated trachea, propranolol blocks β receptor, CCh constriction; settings: Cavia porcellus; propranolol 10^−5 mol/L, CCh 3×10^−6 mol/L
Description: (2) Blocking Effect of Example Compounds on M Receptor of Guinea Pig Tracheal Smooth Muscle
as §3
Administration method: After trachea flake was stabilized, propranolol hydrochloride solution with a final concentration of 10^−5 mol/L was added to block β receptor for 10 min, carbachol with a final concentration of 3×10^−6 mol/L was added (observing M receptor antagonism of compound after propranolol blocks β receptor), and administration was started when the pressure value of the trachea flake was increased to a stable platform. The experiments were divided into a blank group, a propranolol+blank group, each test sample administration group and a propranolol+each test sample administration group. DMSO solution prepared by K—H solution and 50 μl of test sample solution were added to each group of the blank group and each test sample administration group respectively. The propranolol+blank group and propranolol+each test sample administration group were added with 50 μl propranolol solution for 10 min respectively, and then added with DMSO solution prepared from K—H solution and 50 μl of test sample solution. The test sample administration group was added with the compounds to be tested with final concentrations of 10^−9, 0.3×10^−8, 10^−8, 0.3×10^−7, 10^−7, 0.3×10^−6 and 10^−6 mol/L at cumulative concentration, and the blank group was added with corresponding diluted DMSO solution. The propranolol+each test sample administration group was added with propranolol for 10 min, and then added with the compounds to be tested with final concentrations of 10^−9, 0.3×10^−8, 10^−8, 0.3×10^−7, 10^−7, 0.3×10^−6 and 10^−6 mol/L at cumulative concentration. After the propranolol+blank group was added with propranolol for 10 min, corresponding diluted DMSO solution was added. Medlab was used to record the relaxation degree of tracheal smooth muscle, finally sodium nitroprusside with a final concentration of […] was added as 100% relaxation.

[7] = tested on: β2 receptor in guinea pig tracheal smooth muscle; experiment: BA activity: guinea pig isolated trachea pre-treated with histamine; settings: Cavia porcellus
Description: (3) The Antagonism of the Example Compounds on β2 Receptor in Guinea Pig Tracheal Smooth Muscle
as §3
Administration Method: After the trachea flake was stabilized, histamine solution with a final concentration of 3×10^−5 mol/L was added for 10 min, carbachol with a final concentration of 3×10^−6 mol/L was added (observing β receptor antagonism), and administration was started when the pressure value of the trachea flake was increased to a stable platform. The experiments were divided into a blank group, a histamine+blank group, each test sample administration group and a histamine+each test sample administration group. DMSO solution prepared by K—H solution and 50 μl of test sample solution were added to each group of the blank group and each test sample administration group respectively. The histamine+blank group and histamine+each test sample administration group were added with 50 μl histamine solution for 10 min respectively, then added with DMSO solution prepared by K—H solution and 50 μl test sample solution. The test sample administration group was added with the compounds to be tested with final concentrations of 10^−9, 0.3×10^−8, 10^−8, 0.3×10^−7, 10^−7, 0.3×10^−6 and 10^−6 mol/L at cumulative concentration, and the blank group was added with corresponding diluted DMSO solution. The histamine+each test sample administration group was added with histamine for 10 min, and then added with the test compounds with final concentrations of 10^−9, 0.3×10^−8, 10^−8, 0.3×10^−7, 10^−7, 0.3×10^−6 and 10^−6 mol/L at cumulative concentration. After the histamine+blank group was added with histamine for 10 m, corresponding diluted DMSO solution was added. Medlab was used to record the relaxation degree of smooth muscle of the trachea flake. Finally theophylline with a final concentration of 2×10^−4 mol/L was added as 100% relaxation.

[8] = Lung homogenate stability in vitro (human); type: in vitro ADME; settings: 8 h, 37° C.
[9] = Lung homogenate stability in vitro (dog); type: in vitro ADME, Beagle dog; settings: 8 h, 37° C.
Description: The compounds of the invention were respectively incubated with the lung homogenate of Beagle dogs for 8 hours in a water bath at 37° C., and sample was analysed by LC-MS/MS when the reaction was terminated.

[10] = tested on: tracheal smooth muscle of guinea pig; experiment: Relaxation of CCh-induced constriction of isolated guinea pig tracheal smooth muscle (Experimental Example 1); settings: in vitro; for Onset time (min) ± SD / Time for eliminating inhibition effect (min): CCh 3 × 10^−6 mol/L
Description: The upper end was connected with a muscle tension transducer, and the specimen was given a resting tension of 1.0 g. Muscle tension changes were recorded, nutrient solution was changed every 20 min, and the experiment was started after 60 min of equilibrium.
Administration Method: After the trachea flake were stabilized, 3×10^−6 mol/L CCh was added to the bath. […] Diastolic condition of the trachea flake was observed. If no response occurred (below the threshold concentration), the next dosage was continued to be added in the order. If any response occurred, the next dosage was added until its diastolic platform was reached. The above operation was repeated until the shrink curve reached the minimum. Finally, 10^−6 mol/L isoproterenol was added to establish maximum relaxation, and the curve was recorded.
Statistical Methods: Statistics was performed using the Sigma Stat statistical software package, the data was analyzed by using the variance analysis. Student-Newman-Keuls (SNK) test was used in comparison among multiple sample averages number. The statistical test level was α=0.05 (bilateral).

SMILES | 0.5-4 h area increase under heart rate curve (%) ([1]; 0.01 mg/kg iv) | 0.5-4 h area increase under heart rate curve (%) ([1]; 0.10 mg/kg iv) | liver extraction rate (ERh) [2] | liver extraction rate (ERh) [3] | liver extraction rate (ERh) [4] | EC50 [5] [nM] | EC50 [6] [nM] | EC50 ([7]; read-out: BA (EC50, nM)) [nM] | Residual rate after incubation of human lung homogenate (%) [8] [%] | Residual rate after incubation of dog lung homogenate (%) [9] [%] | EC50 ([7]; histamine 3×10^−5 mol/L, read-out: BA (EC50)) [nM] | Onset time (min) ± SD [10] | Time for eliminating inhibition effect (min) [10] | Onset time (min) ± SD ([10]; listed as Tiotropium bromine) [min] | Time for eliminating inhibition effect (min) ([10]; listed as Tiotropium bromine) | EC50 ([10]; Cavia porcellus, constriction induced by CCh 3 × 10^−6 mol/L, read-out: EC50 (μM) ± SD) [µM]
C[N+]1(C)CCC(OC(=O)Nc2cc(CCC(=O)Nc3ccc(CNC[C@H](O)c4ccc(O)c5[nH]c(=O)ccc45)cc3)ccc2-c2ccccc2)CC1.O=C([O-])C(F)(F)F [4-({[5-(2-{[4-({[(2R)-2-hydroxy-2-(8-hydroxy-2-oxo-1,2-dihydroquinolin-5-yl)ethyl]amino}methyl)phenyl]carbamoyl}ethyl)-2-phenylphenyl]carbamoyl}oxy)-1,1-dimethylpiperidin-1-onium trifluoroacetate, reference compound] | 35.2 | 109 | 0.36 | 0.48 | 0.43 |  |  |  |  |  |  |  |  |  |  | 
O=c1ccc2c([C@@H](O)CNCCCCCCCCCN3CCC(Cn4cnc([C@](O)(c5ccccc5)C5CCCCC5)n4)CC3)ccc(O)c2[nH]1 [5-[(1R)-2-({9-[4-({3-[(R)-cyclohexyl(hydroxy)benzyl)-1H-1,2,4-triazol-1-yl}methyl)piperidin-1-yl]nonyl}amino)-1-hydroxyethyl]-8-hydroxyquinolin-2(1H)-one, reference compound] | 69.7 | 152 | 0.62 | 0.42 | 0.36 |  |  |  |  |  |  |  |  |  |  | 
OCc1cc([C@@H](O)CNCCCCCCCCC[N+]23CCC(CC2)[C@@H](OC[C@@](O)(c2ccccc2)C2CCCC2)C3)ccc1O.[Br-] [Compound 7] | −0.5 | 0 | 0.94 | 0.97 | 0.98 | 72.3 ± 14.6 | 290 ± 12.3 | 162 ± 9.8 | 93 | 95 |  |  |  |  |  | 
O=c1ccc2c([C@@H](O)CNCCCCCCCCC[N+]34CCC(CC3)[C@@H](OC[C@@](O)(c3ccccc3)C3CCCC3)C4)ccc(O)c2[nH]1.[Br-] [Compound 12] | 1.2 | 3.6 | 0.96 | 0.98 | 0.93 | 5.8 ± 1.4 | 20.1 ± 2.8 | 13.8 ± 2.3 | 98 | 91 |  |  |  |  |  | 
CC(Cc1ccc(OCC[N+]23CCC(CC2)[C@@H](OC[C@@](O)(c2ccccc2)C2CCCC2)C3)cc1)NC[C@H](O)c1ccc(O)c(NC=O)c1 (stereo partly drawn) [Compound 61, (R)-(−)-3-[(R)-2-hydroxy-2-cyclopentyl-2-phenyl]ethoxy]-1-{2-[4-(2-{(R)-[2-hydroxy-2-(3-formamido-4-hydroxy)phenyl]ethylamino}propyl)phenoxy]ethyl}-1-azabicyclo[2,2,2]octylonium bromide] | 0 | 2.1 | 0.98 | 0.95 | 0.97 | 5 ± 1.1 | 20.6 ± 1.8 | 12.9 ± 1.8 | 92 | 89 |  |  |  |  |  | 
CC(NC[C@H](O)c1ccc(O)c(CO)c1)c1ccc(OCCC[N+]23CCC(CC2)[C@@H](OC[C@@](O)(c2ccccc2)C2CCCC2)C3)cc1 (stereo partly shown) [Compound 69] | −5.1 | −3.4 | 0.95 | 0.96 | 0.94 | 7.6 ± 1.8 | 27.7 ± 3.4 | 18.7 ± 2.8 | 94 | 90 |  |  |  |  |  | 
CC(Cc1ccc(OCCC[N+]23CCC(CC2)[C@@H](OC[C@@](O)(c2ccccc2)C2CCCC2)C3)cc1)NC[C@H](O)c1ccc(O)c2[nH]c(=O)ccc12.[Br-] (stereo partly shown) [Compound 80] | 4 | −5.1 | 0.92 | 0.92 | 0.91 | 3.3 ± 0.9 | 13.3 ± 1.2 | 9.9 ± 1.7 | 92 | 92 |  |  |  |  |  | 
OCc1cc(C(O)CNCCCCCCOCCCCc2ccccc2)ccc1O (stereo not shown) [Salmeterol, reference compound] |  |  |  |  |  |  |  |  |  |  | 93.8 ± 6.8 |  |  |  |  | 
C[N+]1(C)[C@@H]2C[C@@H](OC(=O)C(O)(c3cccs3)c3cccs3)C[C@H]1[C@@H]1O[C@@H]12 [Tiotropium Bromide, tiotropium bromide, reference compound] |  |  |  |  |  |  | 12.2 ± 0.8 |  |  |  |  | slow | long duration of action | 30.37 ± 0.50 | more than 300 min | 0.0142 ± 0.0022
